Like-named read-outs stand apart in the source and are kept apart here.
Columns and labels:
Format in all cases: biochemical
[1] = molecular target: T1, SULT1B1 (Homo sapiens, UniProt O43704); assay: Inhibition of 3-OH-BaP sulfotransferase activity by OH-PCBs with cDNA-expressed SULT1B1; conditions: for IC50: mean of duplicates
T1 construct: made in house; host or cells: Escherichia coli
From the text: (§1) The expression of human SULT1A1*1, SULT1A3, SULT1B1, and SULT1E1 in Escherichia coli has been described previously ([Dajani et al. 1998]; [Wang et al. 1998]). We grew E. coli cells containing the respective sulfotransferase genes as described previously ([Falany et al. 1990], [1994]), and prepared 100,000g supernatant fractions for use in inhibition studies and for partial purification of the SULT enzymes. We purchased expressed SULT1A1*2 cytosolic extract from PanVera (Madison, WI) and used it as supplied.
(§2) We determined SULT activity with 3-OH-BaP as substrate by a fluorimetric assay of BaP-3-SO4 product formation, as described previously ([Wang et al. 2004]). […] Duplicate tubes were prepared for each incubation condition. We examined the kinetics of sulfonation in three liver cytosol fractions by systematically varying the concentration of 3-OH-BaP or PAPS. When the variable substrate was 3-OH-BaP, we used 12 concentrations in the range from 0.035 to 2.00 μM, and the concentration of PAPS was kept constant at 10 μM. When we varied PAPS, we used 7 concentrations from 0.157 to 10.0 μM and kept the concentration of 3-OH-BaP constant at 0.100 μM.
(§3) For each OH-PCB, we examined the concentration dependence of inhibition with three liver cytosol fractions, as well as with cytosol fractions from the E. coli expressing SULT1A1*1, SULT1A3, SULT1B1, and SULT1E1, and the purchased Sf-9 cytosol fraction (PanVera, Madison, WI) containing SULT1A1*2. For studies with HL cytosol, SULT1A1*1, and SULT1E1, we examined two concentrations of 3-OH-BaP, 0.1 μM and 1.0 μM.
(§4) We calculated the effects of OH-PCBs on 3-OH-BaP SULT activity as percentage inhibition compared with the controls without an inhibitor. We obtained IC50 values by fitting log OH-PCB concentration and percent control activity to a sigmoidal curve. We examined the relationships between IC50 and physicochemical properties of the OH-PCBs by linear correlation analysis. We calculated the inhibitory constant (Ki) from the kinetic studies with 4′-OH-CB112 by means of Dixon plots and plots of Km/Vmax against inhibitor concentration ([Cornish-Bowden 1995]).

[2] = molecular target: T2, SULT1A3 (Homo sapiens, UniProt P0DMM9); assay: Inhibition of 3-OH-BaP sulfotransferase activity by 50 μM OH-PCBs with cDNA-expressed SULT1A3; conditions: for inhibition at 50 µM: read-out: inhibition of 3-OH-BaP sulfonation by SULT1A3
T2 construct: made in house; host or cells: Escherichia coli
From the text: as §1, §2, §3, §4

[3] = molecular target: T3, SULT1A1*2 (Homo sapiens, UniProt P50225, R213H); assay: Inhibition of 3-OH-BaP sulfotransferase activity by OH-PCBs with expressed SULT1A1*2
T3 construct: purchased PanVera (Madison, WI); host or cells: Sf-9
From the text: as §1, §2, §3, §4

[4] = molecular target: T4, SULT1E1 (Homo sapiens, UniProt P49888); assay: Inhibition of 3-OH-BaP sulfotransferase activity by OH-PCBs with cDNA-expressed SULT1E1; conditions: for IC50: mean of duplicates
T4 construct: made in house; host or cells: Escherichia coli
T4 sequence (P49888 1-294): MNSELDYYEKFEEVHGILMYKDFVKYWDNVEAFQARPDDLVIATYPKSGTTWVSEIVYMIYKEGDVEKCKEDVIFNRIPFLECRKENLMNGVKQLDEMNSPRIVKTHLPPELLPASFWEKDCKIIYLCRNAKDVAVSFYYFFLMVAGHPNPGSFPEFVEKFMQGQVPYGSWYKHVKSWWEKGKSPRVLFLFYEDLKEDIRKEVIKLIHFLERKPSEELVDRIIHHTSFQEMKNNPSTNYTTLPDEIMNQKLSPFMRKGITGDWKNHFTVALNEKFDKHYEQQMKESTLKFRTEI
From the text: as §1, §2, §3, §4

[5] = molecular target: T5, SULT1A1*1 (Homo sapiens, UniProt P50225); assay: Inhibition of 3-OH-BaP sulfotransferase activity by OH-PCBs with cDNA-expressed SULT1A1*1; conditions: for IC50: mean of duplicates
T5 construct: made in house; host or cells: Escherichia coli
From the text: as §1, §2, §3, §4

[6] = molecular target: HL cytosol 3-OH-BaP sulfotransferase (Homo sapiens, UniProt P50225); assay: Kinetics of 3-OH-BaP sulfotransferase inhibition by 4′-OH-CB112 in HL cytosol
Method: To study the type of inhibition produced by OH-PCBs, we used 4′-OH-CB112 (B5) as a model inhibitor. We prepared four sets of assay tubes containing HL cytosol and varying amounts of 3-OH-BaP from 35 to 150 nM: one set (control) contained no 4′-OH-CB112; the other sets contained 0.25 μM, 0.5 μM, or 1.0 μM 4′-OH-CB112.
as §4

[7] = molecular target: HL cytosol sulfotransferase (Homo sapiens, UniProt P50225); assay: Kinetics of 3-OH-BaP sulfonation by human liver cytosol (fluorimetric assay of BaP-3-SO4 formation); conditions: HL cytosol, 0.1 μM 3-OH-BaP, varying PAPS, mean ± SD n = 3
Method: F.P. Guengerich (Vanderbilt University) kindly donated the samples of human liver, which were procured from organ donors ([Guengerich 1995]). We prepared liver cytosolic fractions from four livers by standard methods and stored aliquots at −80°C until use ([Wang et al. 2004]). We used three or four of these cytosol fractions in each experiment.
as §2
(§5) We calculated the enzyme kinetic parameters from studies with variable concentrations of 3-OH-BaP using nonlinear regression analysis and GraphPad 4.0 software (GraphPad Software, San Diego, CA). We selected the built-in Michaelis-Menten equation for most analyses. Where we found evidence of 3-OH-BaP substrate inhibition, we fit the data into an equation derived from a two-substrate model ([Zhang et al. 1998]): […]
(§6) This equation denoted the constant for binding of the first substrate (S) molecule as Km and the second substrate molecule as Ki. V1 is the maximum rate for the noninhibitory substrate concentration range, and V2 is the minimum rate in the inhibitory substrate concentration range

[8] = molecular target: T3, SULT1A1*2; assay: Kinetics of 3-OH-BaP sulfonation by expressed SULT1A1*2; conditions: expressed SULT1A1*2, 0.1 μM 3-OH-BaP, varying PAPS
From the text: as §1, §2
We determined the kinetic parameters for 3-OH-BaP sulfonation by partially purified preparations of the cDNA-expressed SULT isozymes under incubation conditions similar to those used for liver cytosol. For SULT1A1*1 and -1A1*2, we used seven substrate concentrations in the range from 5 to 100 nM; for SULT1E1 we used […] 3-OH-BaP concentrations from 15.6 to 1,000 nM; and for SULT1A3 and 1B1 we used seven concentrations of 3-OH-BaP from 0.25 to 5.0 μM.
as §5, §6

[9] = 1.0 μM 3-OH-BaP, read-out: IC50 SULT1B1
[10] = 0.1 μM 3-OH-BaP, mean of duplicates, read-out: IC50 SULT1A1*2
[11] = 0.1 μM 3-OH-BaP, read-out: IC50 SULT1E1
[12] = 1.0 μM 3-OH-BaP, read-out: IC50 SULT1E1
[13] = 0.1 μM 3-OH-BaP, read-out: IC50 SULT1A1*1
[14] = 1.0 μM 3-OH-BaP, read-out: IC50 SULT1A1*1
[15] = IC50 SULT1A1*1, 0.1 μM 3-OH-BaP
[16] = IC50 SULT1A1*1, 1.0 μM 3-OH-BaP

T2 sequence (P0DMM9 whole entry): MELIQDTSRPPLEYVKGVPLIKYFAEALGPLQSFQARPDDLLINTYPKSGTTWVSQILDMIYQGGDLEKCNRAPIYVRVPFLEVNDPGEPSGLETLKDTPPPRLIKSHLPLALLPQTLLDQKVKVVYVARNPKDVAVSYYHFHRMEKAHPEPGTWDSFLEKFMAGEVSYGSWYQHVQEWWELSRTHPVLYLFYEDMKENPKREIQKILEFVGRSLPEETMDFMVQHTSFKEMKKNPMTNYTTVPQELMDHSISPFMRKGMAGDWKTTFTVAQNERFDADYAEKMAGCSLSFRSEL
T3 sequence (P50225 whole entry R213H): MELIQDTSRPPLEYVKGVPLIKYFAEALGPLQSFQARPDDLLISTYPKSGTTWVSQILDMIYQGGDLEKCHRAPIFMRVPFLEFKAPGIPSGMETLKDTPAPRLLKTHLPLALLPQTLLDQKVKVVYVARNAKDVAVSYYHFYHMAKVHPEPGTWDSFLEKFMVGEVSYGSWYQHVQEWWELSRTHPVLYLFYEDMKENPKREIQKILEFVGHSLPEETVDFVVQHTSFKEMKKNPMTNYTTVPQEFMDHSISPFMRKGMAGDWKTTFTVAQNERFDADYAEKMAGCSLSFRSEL
T1 sequence (O43704 whole entry): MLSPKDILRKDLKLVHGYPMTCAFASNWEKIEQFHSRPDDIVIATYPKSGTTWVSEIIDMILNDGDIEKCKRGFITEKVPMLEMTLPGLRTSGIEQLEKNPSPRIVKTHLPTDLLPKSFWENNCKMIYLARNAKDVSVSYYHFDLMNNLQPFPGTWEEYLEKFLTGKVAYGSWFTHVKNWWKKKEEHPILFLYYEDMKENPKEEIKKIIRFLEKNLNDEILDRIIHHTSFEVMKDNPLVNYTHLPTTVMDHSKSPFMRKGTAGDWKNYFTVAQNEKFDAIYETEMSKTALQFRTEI
HL cytosol 3-OH-BaP sulfotransferase, sequence (P50225 whole entry): as the sequence (P50225 whole entry R213H) above, with H213R counted along it
HL cytosol sulfotransferase, sequence (P50225 whole entry): as the sequence (P50225 whole entry R213H) above, with H213R counted along it

| Compound | IC50 [1, 9] | inhibition of 3-OH-BaP sulfonation by SULT1A3 ([2]; 50 μM OH-PCB, 1.0 μM 3-OH-BaP) | IC50 [3, 10] | IC50 [4, 11] | IC50 [4, 12] | IC50 [5, 13] | IC50 [5, 14] | inhibition at 50 µM ([2]; 50 μM OH-PCB, 1.0 μM 3-OH-BaP) | also measured |
| --- | --- | --- | --- | --- | --- | --- | --- | --- | --- |
| Oc1ccc(Cl)cc1-c1ccc(Cl)c(Cl)c1 [Compound A1, 6′-OH-CB35] | 4.72 µM | did not inhibit | > 100 µM | ~100 µM | > 100 µM | > 100 µM | > 100 µM | – | inhibitory potency in words, SULT1B1 ([1]; 1.0 μM 3-OH-BaP): fairly potent inhibitor; inhibitory potency in words, SULT1E1 ([4]; either substrate concentration (0.1 and 1.0 μM 3-OH-BaP)): poor inhibitor; inhibitory potency in words, SULT1A1*1 ([5]; both substrate concentrations (0.1 and 1.0 μM 3-OH-BaP)): poor inhibitor |
| Oc1ccc(-c2ccc(Cl)c(Cl)c2)cc1Cl [Compound B1, 4′-OH-CB35] | 16.8 µM | – | 0.55 µM | 0.24 µM | 1.02 µM | 0.77 µM | 25.2 µM | 2 to 20% | – |
| Oc1ccc(-c2cc(Cl)cc(Cl)c2)cc1Cl [Compound B2, 4′-OH-CB36] | 37 µM | – | 0.94 µM | 0.45 µM | 1.89 µM | 1.31 µM | 28 µM | 2 to 20% | – |
| Oc1ccc(-c2c(Cl)cc(Cl)cc2Cl)cc1Cl [Compound B3, 4′-OH-CB69] | > 100 µM | did not inhibit | 1.31 µM | 4.87 µM | 30.8 µM | 1.16 µM | 67.5 µM | – | – |
| Oc1ccc(-c2cc(Cl)c(Cl)c(Cl)c2Cl)cc1Cl [Compound B4, 4′-OH-CB106] | – | did not inhibit | – | – | – | – | – | – | IC50 ([1]; IC50 SULT1B1, 1.0 μM 3-OH-BaP): 17.4 µM; IC50 [3]: 1.06 µM; IC50 ([4]; IC50 SULT1E1, 0.1 μM 3-OH-BaP): 1.18 µM; IC50 ([4]; IC50 SULT1E1, 1.0 μM 3-OH-BaP): 6.97 µM; IC50 [5, 15]: 1.07 µM; IC50 [5, 16]: 10.3 µM |
| Oc1ccc(-c2c(Cl)c(Cl)cc(Cl)c2Cl)cc1Cl [Compound B5, 4′-OH-CB112] | 86.5 µM | did not inhibit | 1.48 µM | 5.35 µM | 23.2 µM | 1.17 µM | 42.5 µM | – | type of inhibition ([6]; 3-OH-BaP 35 to 150 nM): noncompetitive; Vmax (3-OH-BaP sulfotransferase activity) ([6]; in presence of 0.25 μM B5, two livers): 56.3 ± 6.0 B pmol/min/mg protein; Vmax (3-OH-BaP sulfotransferase activity) ([6]; in presence of 0.5 μM B5, n = 3): 41.2 ± 3.3 C pmol/min/mg protein; Vmax (3-OH-BaP sulfotransferase activity) ([6]; in presence of 1.0 μM B5, n = 3): 33.3 ± 3.2 D pmol/min/mg protein |
| Oc1c(Cl)cc(-c2ccc(Cl)c(Cl)c2)cc1Cl [Compound C1, 4′-OH-CB79] | – | – | – | – | – | – | – | – | IC50 ([1]; IC50 SULT1B1, 1.0 μM 3-OH-BaP): 39.9 µM; inhibition at 50 µM [2]: 2 to 20%; IC50 [3]: 4.57 µM; IC50 ([4]; IC50 SULT1E1, 0.1 μM 3-OH-BaP): 0.5 µM; IC50 ([4]; IC50 SULT1E1, 1.0 μM 3-OH-BaP): 1.32 µM; IC50 [5, 15]: 6.65 µM; IC50 [5, 16]: 59.8 µM |
| Oc1c(Cl)cc(-c2cccc(Cl)c2)cc1Cl [Compound C2, 4-OH-CB36] | 47.5 µM | – | 3.05 µM | 0.41 µM | 1.65 µM | 3.09 µM | > 100 µM | 43% | – |
| Oc1c(Cl)cc(-c2c(Cl)cc(Cl)cc2Cl)cc1Cl [Compound C3, 4′-OH-CB121] | – | did not inhibit | – | – | – | – | – | – | IC50 ([1]; IC50 SULT1B1, 1.0 μM 3-OH-BaP): > 100 µM; IC50 [3]: 6.52 µM; IC50 ([4]; IC50 SULT1E1, 0.1 μM 3-OH-BaP): 7.98 µM; IC50 ([4]; IC50 SULT1E1, 1.0 μM 3-OH-BaP): 16.7 µM; IC50 [5, 15]: 8.15 µM; IC50 [5, 16]: 99.5 µM |
| Oc1c(Cl)cc(-c2cc(Cl)c(Cl)c(Cl)c2Cl)cc1Cl [Compound C4, 4′-OH-CB159] | > 100 µM | – | 1.67 µM | 1.3 µM | 3.55 µM | 2.16 µM | 34.1 µM | 2 to 20% | – |
| Oc1c(Cl)cc(-c2c(Cl)c(Cl)cc(Cl)c2Cl)cc1Cl [Compound C5, 4′-OH-CB165] | > 100 µM | did not inhibit | 2.59 µM | 6.96 µM | 21.4 µM | 2.58 µM | 54.8 µM | – | – |
| Oc1c(Cl)cc(-c2cc(Cl)ccc2Cl)cc1Cl [Compound C6, 4′-OH-CB72] | > 100 µM | did not inhibit | 2.03 µM | 0.57 µM | 2.28 µM | 2.21 µM | 33.8 µM | – | – |
| Nc1ncnc2c1ncn2[C@@H]1O[C@H](COP(=O)(O)OS(=O)(=O)O)[C@@H](OP(=O)(O)O)[C@H]1O [PAPS, 3′-phosphoadenosine 5′-phosphosulfate] | – | – | – | – | – | – | – | – | Vmax (varying PAPS) [7]: 48 ± 2 pmol/min/mg protein; Km ([7]; read-out: apparent Km for PAPS): 0.56 ± 0.09 µM; Vmax (varying PAPS) [8]: 684 pmol/min/mg protein; Km ([8]; read-out: apparent Km for PAPS): 0.32 µM |

From publication PMC1257591, “In Vitro Inhibition of Human Hepatic and cDNA-Expressed Sulfotransferase Activity with 3-Hydroxybenzo[a]pyrene by Polychlorobiphenylols” (Environmental Health Perspectives, 2005)
